Reference: ChEMBL document CHEMBL1144356 (J Med Chem, 2005)

Tests used:
[1] = In vitro binding affinity for PPAR-alpha; design: species or system Homo sapiens
[2] = molecular target: T1, Peroxisome proliferator-activated receptor gamma (Homo sapiens, UniProt P37231); test: Effective concentration against human PPAR-gamma in Gal4 transactivation assay; 11% response at 3 uM; type: functional
T1 sequence (P37231 whole entry): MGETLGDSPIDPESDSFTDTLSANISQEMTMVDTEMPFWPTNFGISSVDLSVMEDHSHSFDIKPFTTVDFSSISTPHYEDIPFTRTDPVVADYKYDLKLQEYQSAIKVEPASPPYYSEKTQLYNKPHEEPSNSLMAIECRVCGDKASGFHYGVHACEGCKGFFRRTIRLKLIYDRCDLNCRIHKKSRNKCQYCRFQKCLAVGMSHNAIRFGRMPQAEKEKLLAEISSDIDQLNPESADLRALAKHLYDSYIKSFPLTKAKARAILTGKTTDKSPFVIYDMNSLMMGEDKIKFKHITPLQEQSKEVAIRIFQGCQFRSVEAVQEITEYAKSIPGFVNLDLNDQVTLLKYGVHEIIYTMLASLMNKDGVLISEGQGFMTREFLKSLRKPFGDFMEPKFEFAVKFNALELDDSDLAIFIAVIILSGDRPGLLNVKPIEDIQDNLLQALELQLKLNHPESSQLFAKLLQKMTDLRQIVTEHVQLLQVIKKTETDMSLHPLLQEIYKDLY

[3] = molecular target: T2, Peroxisome proliferator-activated receptor alpha (Canis lupus familiaris, UniProt Q95N78); test: Effective concentration against canine PPAR-alpha in Gal4 transactivation assay
T2 sequence (Q95N78 whole entry): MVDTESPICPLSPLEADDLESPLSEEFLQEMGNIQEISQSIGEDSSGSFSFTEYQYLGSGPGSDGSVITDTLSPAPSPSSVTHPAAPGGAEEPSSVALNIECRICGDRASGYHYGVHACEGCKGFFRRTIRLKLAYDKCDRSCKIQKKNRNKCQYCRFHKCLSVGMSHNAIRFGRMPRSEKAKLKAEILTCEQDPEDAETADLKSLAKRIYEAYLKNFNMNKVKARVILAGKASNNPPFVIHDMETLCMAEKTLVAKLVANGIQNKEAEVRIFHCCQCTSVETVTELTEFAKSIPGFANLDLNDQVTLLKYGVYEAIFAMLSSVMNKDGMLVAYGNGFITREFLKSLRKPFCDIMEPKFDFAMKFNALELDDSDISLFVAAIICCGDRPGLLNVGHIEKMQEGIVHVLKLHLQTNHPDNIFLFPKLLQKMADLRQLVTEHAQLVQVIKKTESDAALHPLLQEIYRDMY

[4] = molecular target: T3, Peroxisome proliferator-activated receptor alpha (Homo sapiens, UniProt Q07869); test: Effective concentration against human PPAR-alpha in Gal4 transactivation assay; type: functional
T3 sequence (Q07869 whole entry): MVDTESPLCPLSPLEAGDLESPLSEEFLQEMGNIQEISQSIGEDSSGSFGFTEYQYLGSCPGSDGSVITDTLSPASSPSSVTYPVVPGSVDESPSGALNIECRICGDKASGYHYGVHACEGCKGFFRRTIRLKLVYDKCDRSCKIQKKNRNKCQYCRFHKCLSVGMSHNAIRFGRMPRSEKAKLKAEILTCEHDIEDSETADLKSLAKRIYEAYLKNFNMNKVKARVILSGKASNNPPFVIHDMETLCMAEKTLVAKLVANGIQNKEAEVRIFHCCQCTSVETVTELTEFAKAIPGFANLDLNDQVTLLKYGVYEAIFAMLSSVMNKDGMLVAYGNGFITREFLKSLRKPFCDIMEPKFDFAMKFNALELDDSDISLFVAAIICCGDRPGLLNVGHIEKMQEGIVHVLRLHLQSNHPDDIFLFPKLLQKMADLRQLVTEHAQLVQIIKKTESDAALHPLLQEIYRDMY

[5] = molecular target: T1, Peroxisome proliferator-activated receptor gamma; test: In vitro binding affinity for PPAR-gamma
[6] = molecular target: T4, Peroxisome proliferator-activated receptor delta (Homo sapiens, UniProt Q03181); test: In vitro binding affinity for PPAR-delta
T4 sequence (Q03181 whole entry): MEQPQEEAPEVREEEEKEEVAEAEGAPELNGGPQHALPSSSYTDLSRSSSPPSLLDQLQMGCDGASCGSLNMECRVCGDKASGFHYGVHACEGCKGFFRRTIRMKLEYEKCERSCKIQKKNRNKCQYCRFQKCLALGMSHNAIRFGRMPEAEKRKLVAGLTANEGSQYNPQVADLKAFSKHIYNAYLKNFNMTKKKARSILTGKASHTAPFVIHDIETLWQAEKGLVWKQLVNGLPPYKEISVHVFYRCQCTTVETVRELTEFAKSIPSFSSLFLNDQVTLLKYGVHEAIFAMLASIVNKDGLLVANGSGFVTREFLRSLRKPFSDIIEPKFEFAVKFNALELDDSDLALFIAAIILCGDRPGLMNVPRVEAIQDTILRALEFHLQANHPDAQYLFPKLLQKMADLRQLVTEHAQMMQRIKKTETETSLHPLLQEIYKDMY

[7] = tested on: Cricetinae gen. sp.; test: Effect at an oral dose of 0.1 mg/kg/day for 14 days on serum cholesterol level of hamster; type: functional, Cricetulus griseus
[8] = tested on: Cricetinae gen. sp.; test: Effect at an oral dose of 0.3 mg/kg/day for 14 days on serum cholesterol level of hamster; type: functional, Cricetulus griseus
[9] = tested on: Cricetinae gen. sp.; test: Effect at an oral dose of 0.3 mg/kg/day for 14 days on serum triglyceride level of hamster; type: functional, Cricetulus griseus
[10] = molecular target: T1, Peroxisome proliferator-activated receptor gamma; test: Effective concentration against human PPAR-gamma in Gal4 transactivation assay; 28% response at 3 uM; type: functional
[11] = tested on: Cricetinae gen. sp.; test: Effect at an oral dose of 0.1 mg/kg/day for 14 days on serum triglyceride level of hamster; type: functional, Cricetulus griseus
[12] = molecular target: T1, Peroxisome proliferator-activated receptor gamma; test: Effective concentration against human PPAR-gamma in Gal4 transactivation assay; 19% response at 3 uM; type: functional
[13] = molecular target: T1, Peroxisome proliferator-activated receptor gamma; test: Effective concentration against human PPAR-gamma in Gal4 transactivation assay; 59% response at 3 uM; type: functional
[14] = molecular target: T1, Peroxisome proliferator-activated receptor gamma; test: Effective concentration against human PPAR-gamma in Gal4 transactivation assay; 12% response at 3 uM; type: functional
[15] = molecular target: T1, Peroxisome proliferator-activated receptor gamma; test: Effective concentration against human PPAR-gamma in Gal4 transactivation assay; 4% response at 3 uM; type: functional
[16] = molecular target: T1, Peroxisome proliferator-activated receptor gamma; test: Effective concentration against human PPAR-gamma in Gal4 transactivation assay; 2% response at 3 uM; type: functional
[17] = tested on: Canis familiaris; test: Effect on cholesterol lowering in male Beagle dog at an oral dose of 50 mkd for 15 days; type: functional, Canis lupus familiaris
[18] = tested on: Canis familiaris; test: Effect on cholesterol lowering in male Beagle dog at an oral dose of 50 mkd for 10 days; type: functional, Canis lupus familiaris
[19] = tested on: Cricetinae gen. sp.; test: Effect at an oral dose of 100 mg/kg/day for 14 days on serum cholesterol level of hamster; type: functional, Cricetulus griseus
[20] = tested on: Canis familiaris; test: Effect on cholesterol lowering in male Beagle dog at an oral dose of 50 mkd for 7 days; type: functional, Canis lupus familiaris
[21] = tested on: Canis familiaris; test: Effect on cholesterol lowering in male Beagle dog at an oral dose of 50 mkd for 3 days; type: functional, Canis lupus familiaris
[22] = tested on: Cricetinae gen. sp.; test: Effect at an oral dose of 100 mg/kg/day for 14 days on serum triglyceride level of hamster; type: functional, Cricetulus griseus
[23] = molecular target: T1, Peroxisome proliferator-activated receptor gamma; test: Effective concentration against human PPAR-gamma in Gal4 transactivation assay; 25% response at 3 uM; type: functional
[24] = molecular target: T1, Peroxisome proliferator-activated receptor gamma; test: Effective concentration required to produce 50% of maximal reporter activity in cell based transactivation assay using human PPAR-gamma-GAL4 chimeric receptor; 6% response at 3 uM ccompound concentration; type: functional
[25] = tested on: Canis familiaris; test: Effect on cholesterol lowering in male Beagle dog at an oral dose of 4 mkd for 10 days; type: functional, Canis lupus familiaris
[26] = tested on: Canis familiaris; test: Effect on cholesterol lowering in male Beagle dog at an oral dose of 4 mkd for 7 days; type: functional, Canis lupus familiaris
[27] = tested on: Canis familiaris; test: Effect on cholesterol lowering in male Beagle dog at an oral dose of 4 mkd for 15 days; type: functional, Canis lupus familiaris
[28] = tested on: Canis familiaris; test: Effect on cholesterol lowering in male Beagle dog at an oral dose of 4 mkd for 3 days; type: functional, Canis lupus familiaris
[29] = molecular target: T1, Peroxisome proliferator-activated receptor gamma; test: Effective concentration against human PPAR-gamma in Gal4 transactivation assay; 56% response at 3 uM; type: functional
[30] = molecular target: T1, Peroxisome proliferator-activated receptor gamma; test: Effective concentration against human PPAR-gamma in Gal4 transactivation assay; 30% response at 3 uM; type: functional
[31] = molecular target: T1, Peroxisome proliferator-activated receptor gamma; test: Effective concentration against human PPAR-gamma in Gal4 transactivation assay; type: functional

SMILES | IC50 [1] [µM] | EC50 [3] [µM] | EC50 [4] [µM] | IC50 [5] [µM] | IC50 [6] [µM] | other results
CC(C)[C@@]1(C(=O)O)Cc2cc(OCCCOc3cc(C(F)(F)F)ccc3Cl)ccc2O1 | 0.162 | 0.042 | 0.041 | > 15 | > 15 | EC50 [2]: > 3 µM
CC[C@@]1(C(=O)O)Cc2cc(OCCCOc3ccc(CC(F)(F)F)cc3Cl)ccc2O1 | 0.004 | < 0.001 | 0.002 | > 15 | > 15 | TC [7]: -33%; TC [8]: -37%; TG [9]: -26%; EC50 [10]: > 3 µM; TG [11]: -13%
CCC1(C(=O)O)Cc2cc(OCCCOc3ccc(OCC(F)(F)F)cc3Cl)ccc2O1 (racemic) | 0.032 | 0.008 | 0.034 | > 15 | > 15 | EC50 [12]: > 3 µM
CC[C@@]1(C(=O)O)Cc2cc(OCCCOc3ccc(CCC(F)(F)F)cc3Cl)ccc2O1 | 0.021 | 0.002 |  | > 15 | > 15 | 
CC[C@@]1(C(=O)O)Cc2cc(OCCCOc3ccc(OCC(F)(F)F)cc3)ccc2O1 | 0.231 | 0.13 |  | > 50 | > 15 | 
O=C(O)C1Cc2cc(OCCCOc3ccc(OCC(F)(F)F)cc3Cl)ccc2O1 (racemic) | 0.786 | 1.35 |  | > 15 | > 15 | 
O=C(O)C1(Cc2ccccc2)Cc2cc(OCCCOc3ccc(OC(F)(F)F)cc3Cl)ccc2O1 (racemic) | 0.275 |  |  | > 15 | > 50 | 
CCCc1cc(SC(F)(F)F)ccc1OCCCOc1ccc2c(c1)CC(CC)(C(=O)O)O2 (racemic) | 0.011 | < 0.001 | 0.008 | 3.11 | 5.23 | EC50 [13]: > 3 µM
CCC1(C(=O)O)Cc2cc(OCCCOc3ccc(C(F)(F)F)cc3Cl)ccc2O1 (racemic) | 0.042 |  |  | > 15 | 0.834 | 
CCC1(C(=O)O)Cc2cc(OCCCOc3ccc(CC(C)(C)C)cc3Cl)ccc2O1 (racemic) | 0.004 | 0.002 |  | 5.6 | > 50 | EC50 [14]: > 3 µM
CCC1(C(=O)O)Cc2ccc(OCCCOc3ccc(OC(F)(F)F)cc3Cl)cc2O1 (stereo not drawn) | 0.022 | < 0.001 |  | 3.22 | 1.19 | 
CC(C)[C@@]1(C(=O)O)Cc2cc(OCCOc3ccc(OC(F)(F)F)cc3Cl)ccc2O1 | 0.264 | 0.01 | 0.057 | > 50 | > 50 | EC50 [15]: > 3 µM
O=C(O)C1(C(F)(F)F)Cc2cc(OCCCOc3ccc(CC(F)(F)F)cc3Cl)ccc2O1 (racemic) | 0.009 | 0.026 | 0.037 | > 15 | 0.399 | EC50 [16]: > 3 µM
CC(C)OC(=O)C(C)(C)Oc1ccc(C(=O)c2ccc(Cl)cc2)cc1 [FENOFIBRATE] |  |  |  |  |  | TC [17]: -12.3%; TC [18]: -5.9%; TC [19]: -28.55%; TC [20]: -5.5%; TC [21]: -2.2%; TG [22]: -24.08%
CC[C@]1(C(=O)O)Cc2cc(OCCCOc3ccc(OC(F)(F)F)cc3Cl)ccc2O1 | 2.23 |  |  | > 15 | > 50 | 
CC(C)[C@]1(C(=O)O)Cc2cc(OCCCOc3ccc(OC(F)(F)F)cc3Cl)ccc2O1 | 1.28 |  |  | > 50 | > 15 | 
CC(C)[C@@]1(C(=O)O)Cc2cc(OCCCOc3ccc(OC(F)(F)F)cc3Cl)ccc2O1 | 0.003 | < 0.001 |  | > 15 | > 15 | TC [7]: -43%; TC [8]: -54%; EC50 [23]: > 3 µM; TG [9]: -52%; TG [11]: -52%
CC(C)(C)C1(C(=O)O)Cc2cc(OCCCOc3ccc(CC(F)(F)F)cc3Cl)ccc2O1 (racemic) | 0.007 | 0.002 |  | > 15 | > 50 | EC50 [24]: > 3 µM
CCC(C)(C)C(=O)O[C@H]1C[C@@H](C)C=C2C=C[C@H](C)[C@H](CC[C@@H]3C[C@@H](O)CC(=O)O3)[C@H]21 [SIMVASTATIN] |  |  |  |  |  | TC [25]: -9.9%; TC [26]: -13.3%; TC [27]: -17.1%; TC [28]: -7.8%
CC(C)(C)[C@@]1(C(=O)O)Cc2cc(OCCOc3ccc(OC(F)(F)F)cc3Cl)ccc2O1 | 1.39 |  |  | > 50 | > 50 | 
CCC1(C(=O)O)Cc2cc(OCCCOc3ccc(C(C)(C)C)cc3Cl)ccc2O1 (racemic) | 0.017 | 0.02 | 0.009 | 4.33 | > 15 | EC50 [29]: > 3 µM
CCC1(C(=O)O)Cc2cc(OCCCOc3ccc(SC(F)(F)F)cc3Cl)ccc2O1 (racemic) | 0.003 | < 0.001 | 0.003 | 6.77 | > 15 | EC50 [30]: > 3 µM
CC1(C(=O)O)Cc2cc(OCCCOc3ccc(OCC(F)(F)F)cc3Cl)ccc2O1 (racemic) | 0.106 | 0.042 | 0.138 | > 15 | > 15 | EC50 [31]: > 3 µM
